Measurements taken from US20230212164A1, “ANNULATED 2-AMINO-3-CYANO THIOPHENES AND DERIVATIVES FOR THE TREATMENT OF CANCER” (BOEHRINGER INGELHEIM INTERNATIONAL GMBH, priority 2020, published 2023).
pIC50: −log10 of the molar value.

Assays:
[1] = molecular target: T1, protein-protein interaction between SOS1 and KRAS G12C (Homo sapiens, UniProt P01116, C118S/C51S/C80L/G12C); experiment: KRAS::SOS1 AlphaScreen binding assay; conditions: Table 36
T1 construct: His6 (N)

[2] = molecular target: KRASG12-dependent Ba/F3 cells (Homo sapiens, UniProt P01116, G12C, cells depend on it); experiment: Ba/F3 cell model proliferation assay (AlamarBlue, 72 h); type: cell-based; conditions: Ba/F3 cells transduced with KRASG12C, read-out: IC50 Ba/F3 KRASG12C
[3] = tested on: SW837 cells; experiment: SW 837 CTG proliferation assay (CRC); type: cell-based; conditions: Homo sapiens
Method: SW837 cells (ATCC #CCL-235) were grown in cell culture flasks (175 cm^2) using L-15 10% FCS, 1% L-Glu, 1xNEAA and 1× Na-Pyrovat. Cultures were incubated at 37° C. and 0% CO2 in a humidified atmosphere, with medium change or subcultivation 2-3 times a week. Materials used for the assay were CulturPlate-384, White Opaque 384-well Microplate, Sterile and Tissue Culture Treated (Perkin Elmer #6007680), Leibovitz L15 Medium and FBS #SH30071.03 (HyClone).
(§1) The proliferation assays started (day1) with seeding cells in flat bottom 384 well microtiter plates in 90 μL L-15 10% FCS, 1% L-Glu, 1xNEAA and 1×Na-Pyrovat at a density of 500 cells/well. Any other luminescence compatible plate format is possible. On day 2, 10 μL dilutions of the test compounds covering a concentration range between app. 0,1 and 10.000 nM were added to the cells. Cells were incubated for 5 days in a humidified, CO2 controlled (no CO2) incubator at 37° C. On day 7 100 μL of Cell Titer Glow reagent (Cell titer Glo Luminescent Cat. No. G7571, Promega) were added to each well and incubated for additional 10 min at room temperature (with agitation). Luminescence was measured on a Wallac Victor using standard luminescence read out. IC50 values were calculated using standard Levenburg Marquard algorithms (GraphPad Prism).

[4] = tested on: MiaPaCa-2 cells; experiment: MiaPaCa-2 CTG proliferation assay (pancreatic cancer); type: cell-based; conditions: Homo sapiens, MIA PaCa-2, 120 h, 5 days, read-out: IC50 MiaPACA2
Method: as §1, with “μL DMEM medium supplemented with” for “μL L-15”, “10% FBS” for “10% FCS, 1% L-Glu, 1xNEAA and 1×Na-Pyrovat”, “humidified, incubator with 5%” for “humidified,”, “CO2” for “CO2 controlled (no CO2) incubator”, “100 μl” for “100 μL”

[5] = tested on: NCI-H358 cells; experiment: NCI-H358 CTG proliferation assay (120 h) (NSCLC); type: cell-based; conditions: Homo sapiens
Method: NCI-H358 cells (ATCC No. CRL-5807) were dispensed into white bottom opaque 96 well plates (Perkin Elmer cat no. 5680) at a density of 2000 cells per well in 100 μL RPMI-1640 ATCC-Formulation (Gibco #A10491)+10% FCS. Cells were incubated overnight at 37° C. in a humidified tissue culture incubator at 5% CO2. Compounds (10 mM stock in DMSO) were added at logarithmic dose series using the HP Digital Dispenser D300 (Tecan), normalizing for added DMSO. For the T0 time point measurement, untreated cells were analyzed at the time of compound addition. Plates were incubated for 120 hours, and cell viability was measured using CellTiter-Glo luminescent cell viability reagent (Promega product code G7570). Viability (stated as percent of control) is defined as relative luminescence units RLU of each well divided by the RLU of cells in DMSO controls. IC50 values were determined from viability measurements by non-linear regression using a four parameter model.

[6] = tested on: pERK (Thr202/Tyr204) in NCI-H358_Cas9_SOS2 (SOS2 knocked); experiment: ERK phosphorylation assay 2 (AlphaLISA SureFire Ultra p-ERK1/2); conditions: read-out: IC50 H358 pERK, ERK phosphorylation assay 2 (values marked with *)
Method: ERK Phosphorylation Assay
Low IC50 values in this assay setting are indicative of high potency of the compounds according to the invention.
GFP positive cells were collected and further expanded. These GFP-positive cell pools were single-cell diluted and SOS2 knock-out clones were identified via Western-blot and genomic DNA sequencing analysis.
Materials Used for the Assay:
AlphaLISA SureFire Ultra p-ERK1/2 (Thr202/Tyr204) Assay Kit (ALSU-PERK-A500)
Cells are seeded at 40,000 cells per well in /60 μL of RPMI with 10% FBS, non-essential amino acids, pyruvate and glutamax in Greiner TC 384 plates. The cells are incubated for 1 h at room temperature and then incubated overnight in an incubator at 37° C. and 5% CO2 in a humidified atmosphere. 60 nL compound solution (10 mM DMSO stock solution) is then added using a Labcyte Echo 550 device. After a 1 h incubation in the aforementioned incubator the medium is removed after centrifugation and the cells lysed by addition of 20 μL of 1.6-fold lysis buffer from the AlphaLISA SureFire Ultra pERK1/2 (Thr202/Tyr204) Assay Kit with added protease inhibitors, 100 nM trametinib+100 nM staurosporine. After 20 minutes of incubation at room temperature with shaking, 6 μL of each lysate sample is transferred to a 384-well Proxiplate and analyzed for pERK (Thr202/Tyr204) with the AlphaLISA SureFire Ultra pERK1/2 (Thr202/Tyr204) Assay Kit. 3 μL Acceptor Mix and 3 μL Donor Mix are added under subdued light and incubated for 2 h at room temperature in the dark, before the signal is measured on a PerkinElmer Envision HTS Multilabel Reader. The raw data were imported into and analyzed with the Boehringer Ingelheim proprietary software MegaLab (curve fitting based on the program PRISM, GraphPad Inc.).

T1 sequence (P01116 1-169 isoform P01116-2 G12C/C51S/C80L/C118S): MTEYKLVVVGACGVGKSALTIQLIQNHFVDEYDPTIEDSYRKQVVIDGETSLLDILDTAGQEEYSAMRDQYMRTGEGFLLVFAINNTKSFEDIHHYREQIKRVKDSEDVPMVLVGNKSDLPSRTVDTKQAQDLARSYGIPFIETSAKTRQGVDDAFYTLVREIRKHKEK
Sequence of KRASG12-dependent Ba/F3 cells (P01116 whole entry G12C): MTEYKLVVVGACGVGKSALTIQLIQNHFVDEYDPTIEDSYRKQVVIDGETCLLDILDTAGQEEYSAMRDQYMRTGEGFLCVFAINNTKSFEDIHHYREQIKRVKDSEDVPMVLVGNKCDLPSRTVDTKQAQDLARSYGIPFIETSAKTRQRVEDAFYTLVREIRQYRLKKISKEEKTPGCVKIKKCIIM

pIC50 [1]	GI50 [2]	pIC50 [3]	pIC50 [4]	pIC50 [5]	pIC50 [6]	Compound
8.77	4.4 nM	> 9.00	8.52	9.02	8.68	C=CC(=O)N1CCN(c2cc(-c3noc([C@@]4(C)CCCc5sc(N)c(C#N)c54)n3)nc(O[C@@H](C)[C@@H]3CCCN3C)n2)CC1 [Ia-46]
8.80	4.3 nM	8.65	8.65	8.87	8.66	C=CC(=O)N1CCN(c2cc(-c3noc([C@@]4(C)CCCc5sc(N)c(C#N)c54)n3)nc(O[C@@H](C)[C@@H]3CCCN3C)n2)[C@@H](C)C1 [Ia-54]
8.80	2.3 nM	9.20	8.37	9.17	8.89	C=CC(=O)N1CCN(c2cc(-c3noc([C@@]4(C)CCCc5sc(N)c(C#N)c54)n3)nc(O[C@@H](C)[C@@H]3CCCN3C)n2)C[C@@H]1C [Ia-61]
8.80	1.2 nM	9.38	8.17	9.00	8.92	C=CC(=O)N1[C@@H](C)CN(c2cc(-c3noc([C@@]4(C)CCCc5sc(N)c(C#N)c54)n3)nc(O[C@@H](C)[C@@H]3CCCN3C)n2)C[C@@H]1C [Ia-62]
8.66	12 nM	8.20	7.92	8.13	8.46	C=CC(=O)N1[C@H](C)CN(c2cc(-c3noc([C@@]4(C)CCCc5sc(N)c(C#N)c54)n3)nc(O[C@@H](C)[C@@H]3CCCN3C)n2)C[C@@H]1C [Ia-64]
8.70	6.9 nM	8.39	7.87	8.38	8.59	C=CC(=O)N1CCN(c2cc(O[C@@H](C)[C@@H]3CCCN3C)nc(-c3noc([C@@]4(C)CCCc5sc(N)c(C#N)c54)n3)n2)CC12CC2 [Ia-77]
8.70	7 nM	8.68	7.86	8.33	8.41	C=CC(=O)N1[C@H](C)CC(Oc2cc(O[C@@H](C)[C@@H]3CCCN3C)nc(-c3noc([C@@]4(C)CCCc5sc(N)c(C#N)c54)n3)c2)C[C@H]1C (stereo partly drawn) [Ia-86]
7.92	77.7 nM	7.15	6.17	7.38	7.54	C=CC(=O)N1C[C@H](C)N(c2cc(-c3noc([C@@]4(C)CCCc5sc(N)c(C#N)c54)n3)nc(O[C@@H](C)[C@@H]3CCCN3C)n2)C[C@H]1C [Ia-133]
